ChEMBL document CHEMBL2040546, “Identification of influenza endonuclease inhibitors using a novel fluorescence polarization assay” (ACS Chem Biol, 2012)

assay: Cytotoxicity; assay type: functional, Canis lupus familiaris, MDCK; conditions: not given

SMILES | CC50 [µM]
O=C(NCC1CC1)c1nc(-c2cnccn2)[nH]c(=O)c1O | > 60
O=C(NCc1ccccc1)c1nc(-c2cnccn2)[nH]c(=O)c1O | > 60
Cc1ccc(CNC(=O)c2nc(-c3cnccn3)[nH]c(=O)c2O)cc1 | > 60
O=C(NCc1ccc(F)cc1)c1nc(-c2cnccn2)[nH]c(=O)c1O | > 60
COc1ccc(CNC(=O)c2nc(-c3cnccn3)[nH]c(=O)c2O)cc1 | > 60
CC(NC(=O)c1nc(-c2cnccn2)[nH]c(=O)c1O)c1ccccc1 (centres undefined) | > 60
C[C@H](NC(=O)c1nc(-c2cnccn2)[nH]c(=O)c1O)c1ccccc1 | > 60
C[C@@H](NC(=O)c1nc(-c2cnccn2)[nH]c(=O)c1O)c1ccccc1 | > 60
Cc1ccc([C@@H](C)NC(=O)c2nc(-c3cnccn3)[nH]c(=O)c2O)cc1 | > 60
C[C@@H](NC(=O)c1nc(-c2cnccn2)[nH]c(=O)c1O)C1CCCCC1 | 7.1
O=C(N[C@H](CO)c1ccccc1)c1nc(-c2cnccn2)[nH]c(=O)c1O | > 60
O=C(NC1CCCc2ccccc21)c1nc(-c2cnccn2)[nH]c(=O)c1O (centres undefined) | 10.2
O=C(O)c1nc(-c2cnccn2)nc(O)c1O | > 60

same assay, conditions: Influenza A virus, MDCK

SMILES | CC50 [µM]
O=C(NCCc1ccccc1)c1nc(-c2cnccn2)[nH]c(=O)c1O | > 60
